From patent US5488060A, “Substituted thiadiazoles, compositions containing them and their use as antimicrobial and marine antifouling agents” (The Dow Chemical Company, priority 1994, dated 1996)
Converted amounts (≈) assume the structure as drawn. Read-outs that look alike come from different tables or passages of the source.

Tests used:
Assay type in all cases: cell-based
[1] = test system: Salmonella choleraesuis (Se); assay: Minimum inhibitory concentration (MIC) in nutrient agar, Salmonella choleraesuis; conditions: Salmonella enterica
Protocol: (§1) The antimicrobial activity of the compounds of the present invention is set forth as the minimum inhibitory concentration (MIC) for the active compounds and is determined for nine (9) bacteria, using nutrient agar, and seven (7) yeast and fungi, using malt yeast agar. This determination is conducted using a one percent solution of the test compound prepared in a mixture of acetone and water.
(§2) Nutrient agar is prepared at pH 6.8, representing a neutral medium, and at pH 8.2, representing an alkaline medium. The nutrient agars are prepared by adding 23 g of nutrient agar to one-liter of deionized water. In addition, the alkaline medium is prepared by adjusting a 0.04M solution of N-[tris-(hydroxymethyl)methyl]glycine buffered deionized water with concentrated sodium hydroxide to a pH of 8.5.
(§3) The test tubes containing the agar are cooled in a water bath until the temperature of the agar is 48° C. Then, an appropriate amount of the one percent solution of the test compound is added (except in the controls where no compound is added) to the respective test tubes so that the final concentrations are 500, […], 100, 50, 25, 10, 5, 2.5, 1.0 and zero parts per million of the test compound in the agar, thus having a known concentration of test compound dispersed therein. The contents of the test tubes are then transferred to respective petri plates. After drying for 24 hours, the petri plates containing nutrient agar are inoculated with bacteria and those containing malt yeast agar are inoculated with yeast and fungi.
(§4) The inoculation with bacteria is accomplished by using the following procedure. Twenty-four hour-cultures of each of the bacteria are prepared by incubating the respective bacteria in tubes containing nutrient broth for 24 hours at 30° C. in a shaker. Dilutions of each of the 24 hour-cultures are made so that nine separate suspensions (one for each of the nine test bacteria) are made, each containing 10^8 colony forming units (CFU) per mL of suspension of a particular bacteria. Aliquots of 0.3 mL of each of the bacterial suspensions are used to fill the individual wells of Steer's Replicator. For each microbial suspension, 0.3 mL was used to fill three wells (i.e., three wells of 0.3 mL each) so that for the nine different bacteria, 27 wells are filled. The Steer's Replicator is then used to inoculate both the neutral and alkaline pH nutrient agar petri plates.
(§5) The inoculated petri plates are incubated at 30° C. for 48 hours and then read to determine if the test compound which is incorporated into the agar prevented growth of the respective bacteria.

[2] = test system: Enterobacter aerogenes (Ea); assay: Minimum inhibitory concentration (MIC) in nutrient agar, Enterobacter aerogenes; conditions: Klebsiella aerogenes, 48 h
Protocol: as §1, §2, §3, §4, §5

[3] = test system: Aureobasidium pullulan (Ap); assay: Minimum inhibitory concentration (MIC) in malt yeast agar, Aureobasidium pullulan; conditions: pH 5.5, read-out: Minimum Inhibitory Concentration, Ap
Protocol: as §1
(§6) Malt yeast agar is prepared at pH 5.5 by adding 3 g yeast extract and 45 g malt agar per liter of deionized water. The specific agar is dispensed in 30 mL aliquots into 25×200 mm test tubes, capped and autoclaved for 15 minutes at 115° C.
as §3
(§7) The inoculation with the yeast and fungi is accomplished as follows. Cultures of yeast and fungi are incubated for seven days on malt yeast agar at 30° C. These cultures are used to prepare suspensions by the following procedure. A suspension of each organism is prepared by adding 10 mL of sterile saline and 10 microliters of octylphenoxy polyethoxy ethanol to the agar slant of yeast or fungi. The sterile saline/octylphenoxy potyethoxy ethanol solution is then agitated with a sterile swab to suspend the microorganism grown on the slant. Each resulting suspension is diluted into sterile saline (1 part suspension: 9 parts sterile saline). Aliquots of these dilutions are placed in individual wells of Steer's Replicator and petri plates inoculated as previously described. The petri plates are incubated at 30° C. and read after 48 hours for yeast and 72 hours for fungi.

Aspergillus niger (An) = assay: Minimum inhibitory concentration (MIC) in malt yeast agar, Aspergillus niger; conditions: pH 5.5; malt yeast agar, 30° C., 72 hours for fungi; read-out: Minimum Inhibitory Concentration, An
Protocol: as §1, §6, §3, §7

[4] = test system: Klebsiella pneumoniae (Kp); assay: Minimum inhibitory concentration (MIC) in nutrient agar, Klebsiella pneumoniae
Protocol: as §1, §2, §3, §4, §5

[5] = test system: Penicillium chrysogenum (Pc); assay: Minimum inhibitory concentration (MIC) in malt yeast agar, Penicillium chrysogenum
Protocol: as §1, §6, §3, §7

Bacillus subtilis (Bs) = assay: Minimum inhibitory concentration (MIC) in nutrient agar, Bacillus subtilis
Protocol: as §1, §2, §3, §4, §5

[6] = test system: Saccharomyces cerevisiae (Sc); assay: Minimum inhibitory concentration (MIC) in malt yeast agar, Saccharomyces cerevisiae
Protocol: as §1, §6, §3, §7

Candida albicans (Ca) = assay: Minimum inhibitory concentration (MIC) in malt yeast agar, Candida albicans; conditions: pH 5.5; malt yeast agar, 30° C., 48 hours for yeast; read-out: Minimum Inhibitory Concentration, Ca
Protocol: as §1, §6, §3, §7

Escherichia coli (Ec) = assay: Minimum inhibitory concentration (MIC) in nutrient agar, Escherichia coli; conditions: 48 h
Protocol: as §1, §2, §3, §4, §5

Proteus vulgaris (Pv) = assay: Minimum inhibitory concentration (MIC) in nutrient agar, Proteus vulgaris; conditions: 48 h
Protocol: as §1, §2, §3, §4, §5

[7] = test system: Pseudomonas aeruginosa (Pa); assay: Minimum inhibitory concentration (MIC) in nutrient agar, Pseudomonas aeruginosa
Protocol: as §1, §2, §3, §4, §5

[8] = test system: Staphylococcus aureus (Sa); assay: Minimum inhibitory concentration (MIC) in nutrient agar, Staphylococcus aureus
Protocol: as §1, §2, §3, §4, §5

[9] = test system: Pseudomonas aeruginosa (PRD-10); assay: Minimum inhibitory concentration (MIC) in nutrient agar, Pseudomonas aeruginosa PRD-10; conditions: 48 h
Protocol: as §1, §2, §3, §4, §5

Trichoderma viride (Tv) = assay: Minimum inhibitory concentration (MIC) in malt yeast agar, Trichoderma viride; conditions: pH 5.5; malt yeast agar, 30° C., 72 hours for fungi; read-out: Minimum Inhibitory Concentration, Tv
Protocol: as §1, §6, §3, §7

Fusarium oxysporum (Fo) = assay: Minimum inhibitory concentration (MIC) in malt yeast agar, Fusarium oxysporum; conditions: pH 5.5; malt yeast agar, 30° C., 72 hours for fungi; read-out: Minimum Inhibitory Concentration, Fo
Protocol: as §1, §6, §3, §7

[10] = 48 h, pH 6.8, read-out: Minimum Inhibitory Concentration, SC
[11] = 48 h, pH 8.2, read-out: Minimum Inhibitory Concentration, SC
[12] = pH 6.8, read-out: Minimum Inhibitory Concentration, Ea
[13] = pH 8.2, read-out: Minimum Inhibitory Concentration, Ea
[14] = 48 h, pH 8.2, read-out: Minimum Inhibitory Concentration, Kp
[15] = pH 6.8, nutrient agar, 30° C., 48 hours, read-out: Minimum Inhibitory Concentration, Kp
[16] = 48 h, pH 8.2, read-out: Minimum Inhibitory Concentration, Bs
[17] = pH 6.8, nutrient agar, 30° C., 48 hours, read-out: Minimum Inhibitory Concentration, Bs
[18] = pH 6.8, read-out: Minimum Inhibitory Concentration, Ec
[19] = pH 8.2, read-out: Minimum Inhibitory Concentration, Ec
[20] = pH 6.8, read-out: Minimum Inhibitory Concentration, Pv
[21] = pH 8.2, read-out: Minimum Inhibitory Concentration, Pv
[22] = pH 6.8, nutrient agar, 30° C., 48 hours, read-out: Minimum Inhibitory Concentration, Pa
[23] = pH 8.2, nutrient agar, 30° C., 48 hours, read-out: Minimum Inhibitory Concentration, Pa
[24] = 48 h, pH 8.2, read-out: Minimum Inhibitory Concentration, Sa
[25] = pH 6.8, read-out: Minimum Inhibitory Concentration, PRD
[26] = pH 8.2, read-out: Minimum Inhibitory Concentration, PRD
[27] = 48 h, pH 5.5, read-out: Minimum Inhibitory Concentration, SC
[28] = pH 6.8, nutrient agar, 30° C., 48 hours, read-out: Minimum Inhibitory Concentration, Sa

SMILES	MIC [1, 10] [µg/mL]	MIC [1, 11] [µg/mL]	MIC [2, 12] [µg/mL]	MIC [2, 13] [µg/mL]	MIC [3] [µg/mL]	MIC (Aspergillus niger (An)) [µg/mL]	MIC [4, 14] [µg/mL]	MIC [4, 15] [µg/mL]	MIC (Bacillus subtilis (Bs); [16]) [µg/mL]	MIC (Bacillus subtilis (Bs); [17]) [µg/mL]	MIC (Candida albicans (Ca)) [µg/mL]	MIC (Escherichia coli (Ec); [18]) [µg/mL]	MIC (Escherichia coli (Ec); [19]) [µg/mL]	MIC (Proteus vulgaris (Pv); [20]) [µg/mL]	MIC (Proteus vulgaris (Pv); [21]) [µg/mL]	MIC [7, 22] [µg/mL]	MIC [7, 23] [µg/mL]	MIC [9, 25] [µg/mL]	MIC [9, 26] [µg/mL]	MIC (Trichoderma viride (Tv)) [µg/mL]	other results
N#CSc1nsnc1-c1ccc(Br)cc1 [Example VI, 4-(4-Bromophenyl)-3-thiocyanato-1,2,5-thiadiazole]	500 (≈ 1680 µM)	500 (≈ 1680 µM)	500 (≈ 1680 µM)	500 (≈ 1680 µM)	2.5 (≈ 8.38 µM)	5 (≈ 16.8 µM)	500 (≈ 1680 µM)	500 (≈ 1680 µM)	500 (≈ 1680 µM)	25 (≈ 83.8 µM)	5 (≈ 16.8 µM)	500 (≈ 1680 µM)	500 (≈ 1680 µM)	500 (≈ 1680 µM)	500 (≈ 1680 µM)	500 (≈ 1680 µM)	500 (≈ 1680 µM)	500 (≈ 1680 µM)	500 (≈ 1680 µM)	< 1	MIC ([5]; 72 h, pH 5.5, read-out: Minimum Inhibitory Concentration, PC): 10 µg/mL (≈ 33.5 µM); MIC ([6]; pH 5.5, malt yeast agar, 30° C., 48 hours for yeast, read-out: Minimum Inhibitory Concentration, SC): 5 µg/mL (≈ 16.8 µM); MIC ([8]; 48 h, pH 6.8, read-out: Minimum Inhibitory Concentration, Sa): 50 µg/mL (≈ 168 µM); MIC [8, 24]: 500 µg/mL (≈ 1680 µM)
N#CSc1nsnc1-c1ccc(C(F)(F)F)cc1 [Example X, 4-(4-Trifluoromethylphenyl)-3-thiocyanato-1,2,5-thiadiazole]	> 500	500 (≈ 1740 µM)	> 500	500 (≈ 1740 µM)	2.5 (≈ 8.7 µM)	5 (≈ 17.4 µM)	500 (≈ 1740 µM)	> 500	500 (≈ 1740 µM)	25 (≈ 87 µM)	5 (≈ 17.4 µM)	> 500	500 (≈ 1740 µM)	> 500	500 (≈ 1740 µM)		500 (≈ 1740 µM)	> 500	500 (≈ 1740 µM)	2.5 (≈ 8.7 µM)	MIC ([5]; pH 5.5, malt yeast agar, 30° C., 72 hours for fungi, read-out: Minimum Inhibitory Concentration, PC): 5 µg/mL (≈ 17.4 µM); MIC [6, 27]: 2.5 µg/mL (≈ 8.7 µM); MIC ([7]; 48 h, pH 6.8, read-out: Minimum Inhibitory Concentration, Pa): > 50 µg/mL; MIC [8, 24]: 500 µg/mL (≈ 1740 µM); MIC [8, 28]: > 500 µg/mL
N#CSc1nsnc1-c1cccc(Cl)c1 [Example III, 4-(3-Chlorophenyl)-3-thiocyanato-l,2,5-thiadiazole]		500 (≈ 1970 µM)	> 500	> 500	2.5 (≈ 9.85 µM)	5 (≈ 19.7 µM)	500 (≈ 1970 µM)			25 (≈ 98.5 µM)	5 (≈ 19.7 µM)	50 (≈ 197 µM)	500 (≈ 1970 µM)	> 500	500 (≈ 1970 µM)	> 500	500 (≈ 1970 µM)	> 500	500 (≈ 1970 µM)	2.5 (≈ 9.85 µM)	MIC ([1]; pH 6.8, nutrient agar, 30° C., 48 hours, read-out: Minimum Inhibitory Concentration, SC): 50 µg/mL (≈ 197 µM); MIC (Fusarium oxysporum (Fo)): 2.5 µg/mL (≈ 9.85 µM); MIC ([4]; 48 h, pH 6.8, read-out: Minimum Inhibitory Concentration, Kp): 50 µg/mL (≈ 197 µM); MIC (Bacillus subtilis (Bs); pH 8.2, nutrient agar, 30° C., 48 hours, read-out: Minimum Inhibitory Concentration, Bs): 100 µg/mL (≈ 394 µM); MIC [6, 27]: 2.5 µg/mL (≈ 9.85 µM); MIC [8, 28]: 25 µg/mL (≈ 98.5 µM); MIC ([8]; pH 8.2, nutrient agar, 30° C., 48 hours, read-out: Minimum Inhibitory Concentration, Sa): 250 µg/mL (≈ 985 µM)
